Laboratory results as given in patent publication US4465672A, “Stable S-adenosylmethionine salts, the process for their preparation, and therapeutic compositions which contain them as active principle” (Bioresearch S.p.A., priority 1981, dated 1984).
Where two headings read alike, the source gives them in different places.

Legend:
[1] = Wide pharmacological screening trial; details: independent of the anion bonded to the SAM
physchem = details: for DEGRADATION AT 45° C. AFTER 240 days: 5760 h; for DEGRADATION AT 45° C. AFTER 360 days: 8640 h; for DEGRADATION AT 45° C. AFTER 120 days: 2880 h; for DEGRADATION AT 45° C. AFTER 180 days: 4320 h; for DEGRADATION AT 45° C. AFTER 60 days: 1440 h
Experimental: The residual SAM percentage at the times indicated was determined by the new method described hereinafter, which ensures maximum accuracy of measurements in that it enables the SAM to be totally separated from all possible degradation products. The present method for determining the SAM is based on the use of HPLC.

[2] = Residual moisture of the lyophilised salt; format: physicochemical
[3] = prior art salts, cited from earlier work

C[S+](CCC(N)C(=O)[O-])CC1OC(n2cnc3c(N)ncnc32)C(O)C1O (stereo not drawn) [SAM.5CH3 SO3 H]
activity and toxicity characteristics [1]: highly interesting activity and toxicity characteristics | degraded at 8640 h (physchem; DEGRADATION AT 45° C. AFTER 360 DAYS): 5% | residual moisture ([2]; Tables 1 to 4, listed as SAM.n CH3 SO3 H, n=5): 1.5% | residual moisture ([2]; with or without lyophilisation support (Tables 5, 6)): 1.5%

C[S+](CCC(N)C(=O)[O-])CC1OC(n2cnc3c(N)ncnc32)C(O)C1O (stereo not drawn) [drawing 5, n=3]
DEGRADATION AT 45° C. AFTER 240 days (physchem): 100% | DEGRADATION AT 45° C. AFTER 360 days (physchem): 100% | temperature up to which the salt is stable ([3]; listed as triparatoluene sulphonate): up to 25 °C | residual moisture ([2]; Tables 1 to 4): 0.8%

C[S+](CCC(N)C(=O)[O-])CC1OC(n2cnc3c(N)ncnc32)C(O)C1O (stereo not drawn) [SAM.1.5 H2 SO4.n CH3 SO3 H, n=1]
residual moisture ([2]; Tables 1 to 4): 1%

C[S+](CCC(N)C(=O)[O-])CC1OC(n2cnc3c(N)ncnc32)C(O)C1O (stereo not drawn) [SAM.5CH3 --C6 H4 --SO3 H]
residual moisture ([2]; Tables 1 to 4, n=5): 1.5%

C[S+](CCC(N)C(=O)[O-])CC1OC(n2cnc3c(N)ncnc32)C(O)C1O (stereo not drawn) [SAM.n CH3 SO3 H, n=2]
DEGRADATION AT 45° C. AFTER 120 days (physchem): 100% | DEGRADATION AT 45° C. AFTER 180 days (physchem): 100% | DEGRADATION AT 45° C. AFTER 240 days (physchem): 100% | DEGRADATION AT 45° C. AFTER 360 days (physchem): 100% | residual moisture ([2]; Tables 1 to 4): 0.5%

C[S+](CCC(N)C(=O)[O-])CC1OC(n2cnc3c(N)ncnc32)C(O)C1O (stereo not drawn) [SAM.n CH3 SO3 H, n=1]
DEGRADATION AT 45° C. AFTER 60 days (physchem): 100% | DEGRADATION AT 45° C. AFTER 120 days (physchem): 100% | DEGRADATION AT 45° C. AFTER 180 days (physchem): 100% | DEGRADATION AT 45° C. AFTER 240 days (physchem): 100% | DEGRADATION AT 45° C. AFTER 360 days (physchem): 100% | residual moisture ([2]; Tables 1 to 4): 0.2%

C[S+](CCC(N)C(=O)[O-])CC1OC(n2cnc3c(N)ncnc32)C(O)C1O (stereo not drawn) [drawing 5, n=4]
residual moisture ([2]; Tables 1 to 4): 1%

C[S+](CCC(N)C(=O)[O-])CC1OC(n2cnc3c(N)ncnc32)C(O)C1O (stereo not drawn) [SAM.n CH3 SO3 H, n=4]
residual moisture ([2]; Tables 1 to 4): 1%

C[S+](CCC(N)C(=O)[O-])CC1OC(n2cnc3c(N)ncnc32)C(O)C1O (stereo not drawn) [drawing 6, n=1]
residual moisture ([2]; Tables 1 to 4): 1%

C[S+](CCC(N)C(=O)[O-])CC1OC(n2cnc3c(N)ncnc32)C(O)C1O (stereo not drawn) [SAM.1.5 H2 SO4.n CH3 SO3 H, n=2]
residual moisture ([2]; Tables 1 to 4): 1.5%

C[S+](CCC(N)C(=O)[O-])CC1OC(n2cnc3c(N)ncnc32)C(O)C1O (stereo not drawn) [SAM.n CH3 SO3 H, n=3]
DEGRADATION AT 45° C. AFTER 240 days (physchem): 100% | DEGRADATION AT 45° C. AFTER 360 days (physchem): 100% | residual moisture ([2]; Tables 1 to 4): 0.8%

C[S+](CCC(N)C(=O)[O-])CC1OC(n2cnc3c(N)ncnc32)C(O)C1O (stereo not drawn) [drawing 5, n=1]
DEGRADATION AT 45° C. AFTER 60 days (physchem): 100% | DEGRADATION AT 45° C. AFTER 120 days (physchem): 100% | DEGRADATION AT 45° C. AFTER 180 days (physchem): 100% | DEGRADATION AT 45° C. AFTER 240 days (physchem): 100% | DEGRADATION AT 45° C. AFTER 360 days (physchem): 100% | residual moisture ([2]; Tables 1 to 4): 0.2%

C[S+](CCC(N)C(=O)[O-])CC1OC(n2cnc3c(N)ncnc32)C(O)C1O (stereo not drawn) [disulphatediparatoluene sulphonate, reference compound]
temperature up to which the salt is stable [3]: up to 45 °C

C[S+](CCC(N)C(=O)[O-])CC1OC(n2cnc3c(N)ncnc32)C(O)C1O (stereo not drawn) [drawing 5, n=6]
residual moisture ([2]; Tables 1 to 4): 2%

C[S+](CCC(N)C(=O)[O-])CC1OC(n2cnc3c(N)ncnc32)C(O)C1O (stereo not drawn) [SAM.n CH3 SO3 H, n=6]
residual moisture ([2]; Tables 1 to 4): 2%

C[S+](CCC(N)C(=O)[O-])CC1OC(n2cnc3c(N)ncnc32)C(O)C1O (stereo not drawn) [drawing 5, n=2]
DEGRADATION AT 45° C. AFTER 120 days (physchem): 100% | DEGRADATION AT 45° C. AFTER 180 days (physchem): 100% | DEGRADATION AT 45° C. AFTER 240 days (physchem): 100% | DEGRADATION AT 45° C. AFTER 360 days (physchem): 100% | residual moisture ([2]; Tables 1 to 4): 0.5%

C[S+](CCC(N)C(=O)[O-])CC1OC(n2cnc3c(N)ncnc32)C(O)C1O (stereo not drawn) [drawing 6, n=2]
residual moisture ([2]; Tables 1 to 4): 1.5%

C[S+](CCC(N)C(=O)[O-])CC1OC(n2cnc3c(N)ncnc32)C(O)C1O (stereo not drawn) [SAM.1.5 H2 SO4.n CH3 SO3 H, n=3]
residual moisture ([2]; Tables 1 to 4): 2%

C[S+](CCC(N)C(=O)[O-])CC1OC(n2cnc3c(N)ncnc32)C(O)C1O (stereo not drawn) [drawing 6, n=3]
residual moisture ([2]; Tables 1 to 4): 2%
